Data published in US6989384B2, “Antipicornaviral compounds and compositions, their pharmaceutical uses, and materials for their synthesis” (Agouron Pharmaceuticals, Inc., priority 2000, dated 2006).
Like-named read-outs stand apart in the source and are kept apart here.

Experiments:
[1] = biological target: T1, rhinovirus 3C protease from HRV serotype-14 (Human rhinovirus 14, UniProt P03303); assay: Inhibition of rhinovirus 3C protease activity (FRET assay), HRV-14; format: biochemical; conditions: read-out: Protease Inhibition kobs/I
T1 construct: Recombinant rhinovirus 3C proteases; made in house
Description: Stock solutions (50 mM, in DMSO) of various compounds were prepared; dilutions were in the same solvent. Recombinant rhinovirus 3C proteases (see Birch et al., “Purification of recombinant human rhinovirus 14 3C protease expressed in Escherichia coli,” Protein Expr. Pur. 1995, 6(5), 609–618) from serotypes 14, 16, and 2 were prepared by the following standard chromatographic procedures: (1) ion exchange using Q Sepharose Fast Flow from Pharmacia; (2) affinity chromatography using Affi-Gel Blue from Biorad; and (3) sizing using Sephadex G-100 from Pharmacia. Each assay sample contained 2% DMSO, 50 mM tris pH 7.6, 1 mM EDTA, a test compound at the indicated concentration, approximately 1 μM substrate, and 50–100 nM protease. The kobs/I values were obtained from reactions initiated by addition of enzyme rather than substrate. RVP activity was measured in the fluorescence resonance energy transfer assay. The substrate was (N-terminal) DABCYL-(Gly-Arg-Ala-Val-Phe-Gln-Gly-Pro-Val-Gly)-EDANS. In the uncleaved peptide, the EDANS fluorescence was quenched by the proximal DABCYL group. When the peptide was cleaved, the quenching was relieved, and activity was measured as an increase in fluorescence signal. In the Table, unless otherwise indicated, all data are for rhinovirus 3C protease from HRV serotype-14 (produced from the infectious cDNA clone constructed by Dr. Robert Rueckert, Institute for Molecular Virology, University of Wisconsin, Madison, Wis.). The data in the column designated kobs/[I] were measured from progress curves in enzyme start experiments.

HRV-14 = assay: Antirhinoviral H1-HeLa cell culture assay (cell protection, XTT), HRV-14; format: cell-based, human rhinovirus; conditions: Rhinovirus B, read-out: Cell Protection EC50
Description: (§1) In this cell protection assay, the ability of compounds to protect cells against HRV infection was measured by the XTT dye reduction method, which is described in Weislow et al., J. Natl. Cancer Inst. 1989, vol. 81, 577–586.
(§2) H1-HeLa cells were infected with HRV-14 at a multiplicity of infection (m.o.i.) of 0.13 (virus particles/cell) or mock-infected with medium only. Infected or mock-infected cells were resuspended at 8×10^5 cells per mL, and incubated with appropriate concentrations of the compounds to be tested. Two days later, XTT/PMS was added to test plates and the amount of formazan produced was quantified spectrophotometrically at 450/650 nm. The EC50 value was calculated as the concentration of compound that increased the percentage of formazan production in compound-treated, virus-infected cells to 50% of that produced by compound-free, mock-infected cells. The 50% cytotoxic dose (CC50) was calculated as the concentration of compound that decreased the percentage of formazan produced in compound-treated, mock-infected cells to 50% of that produced by compound-free, mock-infected cells.
(§3) All strains of human rhinovirus (HRV) for use in this assay were purchased from American Type Culture Collection (ATCC), except for HRV serotype-14 (produced from the infectious cDNA clone constructed by Dr. Robert Rueckert, Institute for Molecular Virology, University of Wisconsin, Madison, Wis.). HRV stocks were propagated and viral assays were performed in H1-HeLa cells (ATCC). Cells were grown in minimal essential medium with 10% fetal bovine serum, available from Life Technologies (Gaithersburg, Md.).
(§4) The compounds were tested against control compounds WIN 51711, WIN 52084, and WIN 54954 (obtained from Sterling-Winthrop Pharmaceuticals), Pirodavir (obtained from Janssen Pharmaceuticals), and Pleconaril (prepared according to the method described in Diana et al., J. Med. Chem 1995, vol. 38, 1355). Antiviral data obtained for the test compounds are shown in the Table, where all data are for HRV serotype-14 unless otherwise noted in parentheses.

HRV-1A = assay: Antirhinoviral H1-HeLa cell culture assay (cell protection, XTT), HRV-1A; format: cell-based, human rhinovirus; conditions: Rhinovirus A, HRV1A, 48 h, H1-HeLa cells, two days
Description: as §1, §2, §3, §4

HRV-10 = assay: Antirhinoviral H1-HeLa cell culture assay (cell protection, XTT), HRV-10; format: cell-based; conditions: Human rhinovirus sp., HRV10, 48 h, HRV-10, H1-HeLa cells, two days
Description: as §1, §2, §3, §4

[2] = Cytotoxicity in mock-infected H1-HeLa cells (XTT); format: cell-based; conditions: human, two days, read-out: Toxicity CC50
Description: as §1, §2, §3

[3] = HRV-14 3C protease, progress curves, enzyme start
[4] = HRV14, 48 h, HRV-14, H1-HeLa cells, XTT, two days

T1 sequence (P03303 1538-1719): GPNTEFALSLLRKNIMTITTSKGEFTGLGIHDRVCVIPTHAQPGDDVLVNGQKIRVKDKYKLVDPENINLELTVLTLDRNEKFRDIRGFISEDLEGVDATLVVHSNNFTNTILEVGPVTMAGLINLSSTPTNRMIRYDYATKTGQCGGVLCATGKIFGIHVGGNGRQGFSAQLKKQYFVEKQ

SMILES	kinact/KI [1, 3]	EC50 (HRV-14; [4])	EC50 (HRV-1A)	EC50 (HRV-10)	CC50 at 2 days [2]	kinact/KI [1]	EC50 (HRV-14; HRV14, H1-HeLa, 48 h)
CCOC(=O)/C=C/[C@H](CCC(N)=O)NC(=O)c1ccc2ccccc2c1 [Compound 25, 6-carbamoyl-4S-[(naphthalene-2-carbonyl)-amino]-hex-2-enoic acid ethyl ester]	150 M⁻¹ s⁻¹	0.6 µM	22 µM	35 µM	> 100 µM	–	–
CCOC(=O)/C=C/[C@H](CCC(N)=O)NC(=O)c1cc2ccccc2s1 [Compound 26, 4S-[(benzo[b]thiophene-2-carbonyl)-amino]-6-carbamoyl-hex-2-enoic acid ethyl ester]	95 M⁻¹ s⁻¹	1.5 µM	59 µM	12.4 µM	> 100 µM	–	–
CCOC(=O)/C=C/[C@H](C[C@@H]1CCNC1=O)NC(=O)/C=C/c1cc2c(cc1Br)OCO2 [Compound 49, 4S-[3-(6-Bromo-benzo[1,3]dioxol-5-yl)-acryloylamino]-5-(2-oxo-pyrrolidin-3S-yl)-pent-2-enoic acid ethyl ester]	–	–	2.51 µM	0.316 µM	> 100 µM	14400 M⁻¹ s⁻¹	0.49 µM
CCOC(=O)/C=C/[C@H](C[C@@H]1CCNC1=O)NC(=O)COc1ccc(Cl)c(Cl)c1 [Compound 62, 4S-[2-(3,4-dichloro-phenoxy)-acetylamino]-5-(2-oxo-pyrrolidin-3S-yl)-pent-2-enoic acid ethyl ester]	–	–	–	–	> 10 µM	134 M⁻¹ s⁻¹	6.1 µM
CCOC(=O)/C=C/[C@H](C[C@@H]1CCNC1=O)NC(=O)c1cc2cc(OC)ccc2[nH]1 [Compound 41, 4S-[(5-Methoxy-1H-indole-2-carbonyl)-amino]-5-(2-oxo-pyrrolidin-3S-yl)-pent-2-enoic acid ethyl ester]	–	–	–	–	> 100 µM	2190 M⁻¹ s⁻¹	2.36 µM
CCOC(=O)/C=C/[C@H](C[C@@H]1CCNC1=O)NC(=O)/C=C/c1ccc(F)c(Br)c1 [Compound 48, 4S-[3-(3-Bromo-4-fluoro-phenyl)-acryloylamino]-5-(2-oxo-pyrrolidin-3S-yl)-pent-2-enoic acid ethyl ester]	–	–	–	–	> 100 µM	2860 M⁻¹ s⁻¹	0.625 µM
CCOC(=O)/C=C/[C@H](CCC(N)=O)NC(=O)c1nn(-c2ccccc2)nc1C [Compound 32, 6-carbamoyl-4S-[(5-methyl-2-phenyl-2H-[1,2,3]triazole-4-carbonyl)-amino]-hex-2-enoic acid ethyl ester]	83 M⁻¹ s⁻¹	1.8 µM	–	–	> 100 µM	–	–
CCOC(=O)/C=C/[C@H](C[C@@H]1CCNC1=O)NC(=O)c1cc(-c2ccccc2)oc1C [Compound 45, 4S-[(2-Methyl-5-phenyl-furan-3-carbonyl)-amino]-5-(2-oxo-pyrrolidin-3S-yl)-pent-2-enoic acid ethyl ester]	–	–	–	–	> 100 µM	4740 M⁻¹ s⁻¹	1.94 µM
CCOC(=O)/C=C/[C@H](CCC(N)=O)NC(=O)c1ccc2ccccc2n1 [Compound 31, 6-carbamoyl-4S-[(quinoline-2-carbonyl)-amino]-hex-2-enoic acid ethyl ester]	110 M⁻¹ s⁻¹	7.1 µM	–	–	> 100 µM	–	–
CCOC(=O)/C=C/[C@H](C[C@@H]1CCNC1=O)NC(=O)c1cc2cc(CC)ccc2[nH]1 [Compound 8, 4S-[(5-ethyl-1H-indole-2-carbonyl)-amino]-5-(2-oxo-pyrrolidin-3S-yl)-pent-2-enoic acid ethyl ester]	–	–	–	–	> 10 µM	980 M⁻¹ s⁻¹	2.67 µM
CCOC(=O)/C=C/[C@H](C[C@@H]1CCNC1=O)NC(=O)C1=Cc2ccccc2OC1 [Compound 67, 4S-[(2H-chromene-3-carbonyl)-amino]-5-(2-oxopyrrolidin-3S-yl)-pent-2-enoic acid ethyl ester]	–	–	–	–	> 100 µM	886 M⁻¹ s⁻¹	1.19 µM
CCOC(=O)/C=C/[C@H](CCC(N)=O)NC(=O)/C=C/c1ccccc1 [Compound 29, 6-carbamoyl-4S-(3-phenyl-acryloylamino)-hex-2-enoic acid ethyl ester]	62 M⁻¹ s⁻¹	31.6 µM	–	–	> 100 µM	–	–
CCOC(=O)/C=C/[C@H](C[C@@H]1CCNC1=O)NC(=O)c1cc2cc(Br)ccc2n1C [Compound 21, 4S-[(5-bromo-1-methyl-indole-2-carbonyl)-amino]-5-(2-oxo-pyrrolidin-3S-yl)-pent-2-enoic acid ethyl ester]	–	–	–	–	17.8 µM	1320 M⁻¹ s⁻¹	3.07 µM
CCOC(=O)/C=C/[C@H](C[C@@H]1CCNC1=O)NC(=O)/C=C/c1cccc(Br)c1 [Compound 3, 4S-[3-(3-bromo-phenyl)-acryloylamino]-5-(2-oxo-pyrrolidin-3S-yl)-pent-2-enoic acid ethyl ester]	–	–	–	–	> 10 µM	2560 M⁻¹ s⁻¹	1.4 µM
CCOC(=O)/C=C/[C@H](CCC(N)=O)NC(=O)c1cc2ccccc2[nH]1 [Compound 38, 6-carbamyl-4S-[(1H-indole-2-carbonyl)-amino]-hex-2-enoic acid ethyl ester]	71 M⁻¹ s⁻¹	1 µM	–	–	> 100 µM	–	–
CCOC(=O)/C=C/[C@H](C[C@@H]1CCNC1=O)NC(=O)c1cc2cc(Br)ccc2[nH]1 [Compound 20]	–	–	–	–	> 10 µM	1370 M⁻¹ s⁻¹	4.39 µM
CCOC(=O)/C=C/[C@H](CCC(N)=O)NC(=O)c1ccccc1 [Compound 34]	10 M⁻¹ s⁻¹	> 100 µM	–	–	> 100 µM	–	–
CCOC(=O)/C=C/[C@H](C[C@@H]1CCNC1=O)NC(=O)c1cc2cc(OC)c(OC)cc2n1C [Compound 19, 4S-[(5,6-dimethoxy-1-methyl-indole-2-carbonyl)-amino]-5-(2-oxo-pyrrolidin-3S-yl)-pent-2-enoic acid ethyl ester]	–	–	–	–	> 10 µM	1230 M⁻¹ s⁻¹	1.36 µM
CCOC(=O)/C=C/[C@H](C[C@@H]1CCNC1=O)NC(=O)N[C@@H](CC(C)C)C(=O)OCC [Compound 24, 4S-[3-(1S-ethoxycarbonyl-3-methyl-butyl)-ureido]-5-(2-oxo-pyrrolidin-3S-yl)-pent-2-enoic acid ethyl ester]	–	–	–	–	> 10 µM	1050 M⁻¹ s⁻¹	4.6 µM
CCOC(=O)/C=C/[C@H](CCC(N)=O)NC(=O)c1cnc2ccccc2n1 [Compound 28, 6-carbamoyl-4S-[(quinoxaline-2-carboxyl)-amino]-hex-2-enoic acid ethyl ester]	64 M⁻¹ s⁻¹	14.1 µM	–	–	> 100 µM	–	–
CCOC(=O)/C=C/[C@H](CCC(N)=O)NC(=O)c1ccccc1COC(=O)c1ccccc1 [Compound 36]	10 M⁻¹ s⁻¹	> 100 µM	–	–	> 100 µM	–	–
CCOC(=O)/C=C/[C@H](C[C@@H]1CCNC1=O)NC(=O)c1cc2cc(C)ccc2[nH]1 [Compound 43, 4-[(5-Methyl-1H-indole-2-carbonyl)-amino]-5-(2-oxo-pyrrolidin-3-yl)-pent-2-enoic acid ethyl ester]	–	–	–	–	> 100 µM	3460 M⁻¹ s⁻¹	2.14 µM
CCOC(=O)/C=C/[C@H](C[C@@H]1CCNC1=O)NC(=O)c1ccc2cc(C)ccc2c1 [Compound 51, 4S-[(6-Methyl-naphthalene-2-carbonyl)-amino]-5-(2-oxo-pyrrolidin-3S-yl)-pent-2-enoic acid ethyl ester]	–	–	–	–	> 100 µM	5020 M⁻¹ s⁻¹	0.88 µM
